Here are results for five compounds from article PMC5017989, “Anti-inflammatory and acetylcholinesterase activity of extract, fractions and five compounds isolated from the leaves and twigs of Artemisia annua growing in Cameroon” (SpringerPlus, 2016).

What is called viability is a read-out of living cells in per cent, often relative to untreated cells. The term inhibition denotes the change of the read-out against control, counted positive when it falls.

A short description of one data set: in vitro. Particulars: mouse, MTT, cells with LPS only = 100 %, read-out: % Cell viability. It is filed as cell-based, murine. On the procedure: (§1) The RAW 264.7 macrophages cell line was purchased from the American Type Culture Collection (ATCC TIB-71, Rockville, MD, USA) and cultured in a plastic culture flask in DMEM containing L-glutamine supplemented with 10 % FCS and 1 % PSF solution at 37 °C with 5 % CO2. Cells were seeded (10^4 per well) in 96 well-microtitre plate and activated LPS alone (control) or with samples at different concentrations. Quercetin was used as a positive control (Mu et al. [2001]).
(§2) The number of viable cells was determined as previously described by Mosmann ([1983]) on the macrophage cells with few modifications. Briefly, the cells were topped up with 200 µL DMEM after removal of media. 30 µL of 15 mg/mL MTT were added to each well and cells were incubated at 37 °C with 5 % CO2. The medium was aspirated after 2 h, and the formazan salt formed was dissolved using DMSO. The absorbance was read at 570 nm on a BioTek Synergy microplate reader. Cell viability percentage was then calculated with reference to the control (cells with LPS only considered as 100 % viable).

Another data set concerns RAW 264.7 macrophages. As to the kind of experiment: in vitro. It is filed as cell-based, murine. Particulars: sample at 20 µg/mL; MTT; cells with LPS only = 100 %. On the procedure:
as §1, §2

Data set [1] concerns NO production in LPS-activated RAW 264.7 macrophages. Nature of the data set: Nitric oxide inhibitory activity in LPS-activated RAW 264.7 macrophages (Griess reagent). It is filed as cell-based, murine. The note with it: for inhibition at 0.5 µg/mL / inhibition at 2 µg/mL / inhibition at 5 µg/mL / inhibition at 20 µg/mL: Mus musculus, relative to LPS control; for inhibition at 0.5 µg/mL: RAW264.7, sample at 0.5 µg/mL; for inhibition at 2 µg/mL: RAW264.7, sample at 2 µg/mL; for inhibition at 5 µg/mL: RAW264.7, sample at 5 µg/mL; for inhibition at 20 µg/mL: RAW264.7, sample at 20 µg/mL; for NO: LPS-activated RAW 264.7. On the procedure:
Compounds were assayed for their potential to inhibit the NO production in macrophage cells.
as §1
The amount of nitric oxide released was determined by the Griess reagent as reported previously (Dzoyem et al. [2015]).
A general note: Griess reagent forms a coloured azo dye with nitrite.

In the next data set the target is acetylcholinesterase (Electrophorus electricus, UniProt O42275). Nature of the data set: biochemical.
Chain of acetylcholinesterase (O42275 24-633): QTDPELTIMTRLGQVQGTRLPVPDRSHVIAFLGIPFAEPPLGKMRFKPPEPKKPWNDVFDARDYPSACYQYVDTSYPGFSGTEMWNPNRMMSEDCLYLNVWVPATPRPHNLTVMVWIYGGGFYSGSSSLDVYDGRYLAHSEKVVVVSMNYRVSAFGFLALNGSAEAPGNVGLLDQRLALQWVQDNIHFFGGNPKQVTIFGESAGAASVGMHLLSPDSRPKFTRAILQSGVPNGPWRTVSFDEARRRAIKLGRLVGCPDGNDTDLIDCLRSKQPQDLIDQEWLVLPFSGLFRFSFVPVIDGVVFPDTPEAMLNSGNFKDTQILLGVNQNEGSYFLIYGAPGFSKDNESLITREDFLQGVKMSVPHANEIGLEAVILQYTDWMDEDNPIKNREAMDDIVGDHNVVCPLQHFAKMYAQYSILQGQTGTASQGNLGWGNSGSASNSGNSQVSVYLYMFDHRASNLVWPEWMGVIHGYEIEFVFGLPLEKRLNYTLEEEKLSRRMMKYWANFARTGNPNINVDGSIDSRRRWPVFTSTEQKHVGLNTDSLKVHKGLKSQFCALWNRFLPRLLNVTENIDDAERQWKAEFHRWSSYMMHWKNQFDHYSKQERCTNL

Read-outs that look alike come from different tables or passages of the source. Marks after values point to notes of the source that are not given here.

Turning to `COc1cc2ccc(=O)oc2cc1O` [Compound 2, scopoletin], the viability was 80.3 ± 8.56% in “in vitro” (sample at 0.5 µg/mL), 69.9 ± 9.23% in “in vitro” (sample at 2 µg/mL), 88.5 ± 1.19% in the data set “in vitro” (sample at 5 µg/mL) and 81.6 ± 4.35% in “in vitro” (sample at 20 µg/mL). Also, the “% Cell viability” value with RAW 264.7 macrophages is reported as “without obvious cytotoxic effect”. For the same compound, the inhibition at 0.5 µg/mL in data set [1] came to 65.5 ± 4.41%. The inhibition at 2 µg/mL in data set [1] was 72 ± 4.22%. For the same compound, in data set [1], the inhibition at 5 µg/mL came to 77.7 ± 2.09%. Besides, the inhibition at 20 µg/mL in data set [1] turned out to be 98.46 ± 0.79%. The “NO” value is given as 2.65 ± 0.34 µM in data set [1] (sample at 0.5 µg/mL), 2.15 ± 0.32 µM in data set [1] (sample at 2 µg/mL), 1.71 ± 0.16 µM in data set [1] (sample at 5 µg/mL) and 0.12 ± 0.06 µM in data set [1] (sample at 20 µg/mL). Also, the inhibition at 100 µg/mL against acetylcholinesterase worked out at 56.3 ± 4.92%.
As for `COc1cc(-c2oc3cc(OC)c(OC)c(O)c3c(=O)c2OC)ccc1O` [Compound 3, chrysosplenetin], the viability in “in vitro” (sample at 0.5 µg/mL) amounted to 95.6 ± 4.88%; in the data set “in vitro” (sample at 2 µg/mL) it was 67.4 ± 3.74%; in the data set “in vitro” (sample at 5 µg/mL), 28.5 ± 2.18%; in “in vitro” (sample at 20 µg/mL), 15.9 ± 2.37%. In addition, in data set [1], the inhibition at 0.5 µg/mL is 37.7 ± 2.88%. In addition, in data set [1], the inhibition at 2 µg/mL is 81.7 ± 1.04%. Further, the inhibition at 5 µg/mL in data set [1] is 98.6 ± 1.67%. For the same compound, in data set [1], the inhibition at 20 µg/mL was over 100%. The “NO” value in data set [1] (sample at 0.5 µg/mL) was 4.79 ± 0.22 µM; in data set [1] (sample at 2 µg/mL) it was 1.41 ± 0.08 µM; in data set [1] (sample at 5 µg/mL), 0.10 ± 0.13 µM; in data set [1] (sample at 20 µg/mL), -0.32 ± 0.02 µM. Besides, the inhibition at 100 µg/mL against acetylcholinesterase was determined as 80 ± 9.67%.
Consider `COc1ccc(-c2oc3cc(OC)c(OC)c(O)c3c(=O)c2O)cc1O` [Compound 4, eupatin], for which the viability in the data set “in vitro” (sample at 0.5 µg/mL) worked out at 79.3 ± 5.34%; in the data set “in vitro” (sample at 2 µg/mL), 48.5 ± 3.88%; in “in vitro” (sample at 5 µg/mL), 17.6 ± 1.66%; in “in vitro” (sample at 20 µg/mL), 7.49 ± 0.62%. Further, the inhibition at 0.5 µg/mL in data set [1] is 83.4 ± 1.96%. Besides, the inhibition at 2 µg/mL in data set [1] was 97.9 ± 1.08%. In data set [1], the inhibition at 5 µg/mL came out at 97.8 ± 6.28%. Moreover, the inhibition at 20 µg/mL in data set [1] was over 100%. Moreover, the “NO” value is 1.27 ± 0.15 µM in data set [1] (sample at 0.5 µg/mL), 0.16 ± 0.08 µM in data set [1] (sample at 2 µg/mL), 0.17 ± 0.48 µM in data set [1] (sample at 5 µg/mL) and -0.20 ± 0.02 µM in data set [1] (sample at 20 µg/mL). The “% Inhibition (acetylcholinesterase)” value on acetylcholinesterase (single concentration of 100 µg/mL (compounds and galantamine)) is on record as 58.22 ± 2.73^b %.
Consider `O=c1c(O)c(-c2ccc(O)c(O)c2)oc2cc(O)cc(O)c12` [Quercetin, reference compound], for which the viability amounted to 105 ± 6.13% in the data set “in vitro” (sample at 0.5 µg/mL), 98.3 ± 5.17% in the data set “in vitro” (sample at 2 µg/mL), 76.2 ± 2.06% in the data set “in vitro” (sample at 5 µg/mL) and 23.1 ± 5.37% in the data set “in vitro” (sample at 20 µg/mL). Moreover, the inhibition at 0.5 µg/mL in data set [1] turned out to be 34.9 ± 2.76%. Further, in data set [1], the inhibition at 2 µg/mL was determined as 43 ± 3.89%. Further, the inhibition at 5 µg/mL in data set [1] is 85.7 ± 2.34%. The inhibition at 20 µg/mL in data set [1] worked out at 103 ± 1.08%. In addition, the “NO” value in data set [1] (sample at 0.5 µg/mL) was found to be 5.01 ± 1.67 µM; in data set [1] (sample at 2 µg/mL), 4.38 ± 0.30 µM; in data set [1] (sample at 5 µg/mL) it was 1.10 ± 0.18 µM.
In the case of `C[C@@H]1CC[C@H]2[C@@H](C)C(=O)O[C@@H]3O[C@@]4(C)CC[C@@H]1[C@]32OO4` [Compound 1, artemisinin], the viability in “in vitro” (sample at 0.5 µg/mL) is 110 ± 6.22%; in “in vitro” (sample at 2 µg/mL) it was 104 ± 9.66%; in the data set “in vitro” (sample at 5 µg/mL), 91.3 ± 2.2%; in the data set “in vitro” (sample at 20 µg/mL) it was 80.9 ± 1.71%. Moreover, the “% Cell viability” value in the data set on RAW 264.7 macrophages is “without obvious cytotoxic effect”. The inhibition at 0.5 µg/mL in data set [1] was determined as 56.3 ± 14.4%. In addition, the inhibition at 2 µg/mL in data set [1] came out at 83.1 ± 9.72%. Moreover, in data set [1], the inhibition at 5 µg/mL was found to be 89.1 ± 7.05%. The inhibition at 20 µg/mL in data set [1] was found to be 99.2 ± 2.16%. Besides, the “NO” value amounted to 3.36 ± 1.10 µM in data set [1] (sample at 0.5 µg/mL), 1.30 ± 0.75 µM in data set [1] (sample at 2 µg/mL), 0.84 ± 0.54 µM in data set [1] (sample at 5 µg/mL) and 0.07 ± 0.17 µM in data set [1] (sample at 20 µg/mL). On acetylcholinesterase, the inhibition at 100 µg/mL was 71.7 ± 7.9%.
